According to ChEMBL document CHEMBL3046842, “Antimicrobial and insect antifeedant activities of some Trogers bases” (2012):
Calls of active or inactive are those of the source.

What was measured:
[1] = test system: Enterococcus faecalis; assay: Antibacterial activity against Enterococcus faecalis at 250 ug/ml after 24 to 45 hrs by disc diffusion method; type: functional; settings: for zone of inhibition at 250 µg/mL: read-out: IZ
[2] = test system: Escherichia coli; assay: Antibacterial activity against Escherichia coli at 250 ug/ml after 24 to 45 hrs by disc diffusion method; type: functional; settings: read-out: IZ
[3] = test system: Achaea janata; assay: Antifeedant activity against fourth instar larvae of Achaea janata fed on compound treated castor leaves at 200 ppm after 24 hrs by leaf disc method; type: functional, organism-based
[4] = test system: Staphylococcus aureus; assay: Antibacterial activity against Staphylococcus aureus at 250 ug/ml after 24 to 45 hrs by disc diffusion method; type: functional; settings: read-out: IZ
[5] = test system: Pseudomonas; assay: Antibacterial activity against Pseudomonas at 250 ug/ml after 24 to 45 hrs by disc diffusion method; type: functional; settings: read-out: IZ
[6] = test system: Klebsiella pneumoniae; assay: Antibacterial activity against Klebsiella pneumoniae at 250 ug/ml after 24 to 45 hrs by disc diffusion method; type: functional; settings: read-out: IZ
[7] = test system: Proteus vulgaris; assay: Antibacterial activity against Proteus vulgaris at 250 ug/ml after 24 to 45 hrs by disc diffusion method; type: functional; settings: read-out: IZ
[8] = test system: Penicillium; assay: Antifungal activity against Penicillium at 50 ug/ml after 72 hrs by disc diffusion method; type: functional, organism-based
[9] = test system: Aspergillus niger; assay: Antifungal activity against Aspergillus niger at 50 ug/ml after 72 hrs by disc diffusion method; type: functional, organism-based
[10] = test system: Candida albicans; assay: Antifungal activity against Candida albicans at 250 ug/ml after 72 hrs by disc diffusion method; type: functional; settings: for zone of inhibition at 250 µg/mL: read-out: IZ
[11] = test system: Achaea janata; assay: Antifeedant activity against fourth instar larvae of Achaea janata fed on compound treated castor leaves at 150 ppm after 24 hrs by leaf disc method; type: functional, organism-based

Row | Structure (SMILES) | zone of inhibition at 250 µg/mL [1] [mm] | zone of inhibition at 250 µg/mL [2] [mm] | Activity [3] | zone of inhibition at 250 µg/mL [4] [mm] | zone of inhibition at 250 µg/mL [5] [mm] | zone of inhibition at 250 µg/mL [6] [mm] | zone of inhibition at 250 µg/mL [7] [mm] | Activity [8] | Activity [9] | zone of inhibition at 250 µg/mL [10] [mm] | Activity [1] | Activity [10] | Activity [11]
1 | Cc1ccc2c(c1Cl)CN1CN2Cc2c1ccc(C)c2Cl | 8 | 13 | Active | 13 | 13 | 13 | 13 | inactive | inactive | 13 | – | – | –
2 | Fc1cccc2c1N1Cc3cccc(F)c3N(C2)C1 | – | 13 | Active | 8 | 8 | 8 | 8 | inactive | inactive | 8 | inactive | – | –
3 | Fc1ccc2c(c1)CN1CN2Cc2cc(F)ccc21 | – | 13 | Active | 13 | 8 | 13 | 13 | inactive | inactive | 8 | inactive | – | –
4 | Cc1cc2c(cc1F)N1Cc3cc(C)c(F)cc3N(C2)C1 | 8 | 13 | Active | 13 | 13 | 13 | 13 | inactive | inactive | 13 | – | – | –
5 | Cc1cc(Br)cc2c1N1Cc3cc(Br)cc(C)c3N(C2)C1 | 13 | 8 | Active | 8 | 13 | 13 | 8 | inactive | inactive | 8 | – | – | –
6 | Clc1ccc2c(c1)N1Cc3ccc(Cl)cc3N(C2)C1 | 13 | 13 | Active | 13 | 13 | 13 | 13 | inactive | inactive | 8 | – | – | –
7 | COc1cc2c(cc1Cl)N1Cc3cc(OC)c(Cl)cc3N(C2)C1 | 8 | 20 | Active | 20 | 20 | 20 | 20 | Active | inactive | 20 | – | – | –
8 | Cc1cc2c(cc1I)N1Cc3cc(C)c(I)cc3N(C2)C1 | – | 8 | Active | 13 | 8 | 8 | 8 | inactive | inactive | 13 | inactive | – | –
9 | Cc1cc(Cl)c2c(c1)CN1CN2Cc2cc(C)cc(Cl)c21 | – | 13 | Active | 13 | 8 | 13 | 13 | inactive | inactive | – | inactive | inactive | –
10 | Cc1ccc2c(c1Br)CN1CN2Cc2c1ccc(C)c2Br | 8 | 13 | Active | 13 | 13 | 13 | 13 | inactive | inactive | 8 | – | – | –
11 | Cc1cc(I)c2c(c1)CN1CN2Cc2cc(C)cc(I)c21 | 8 | 13 | Active | 13 | 8 | 13 | 13 | inactive | inactive | 13 | – | – | –
12 | Fc1cc(F)c2c(c1)CN1CN2Cc2cc(F)cc(F)c21 | – | 13 | Active | 8 | 8 | 8 | 8 | inactive | inactive | – | inactive | inactive | Active
13 | Brc1cccc2c1N1Cc3cccc(Br)c3N(C2)C1 | – | 13 | Active | 8 | 8 | 8 | 8 | inactive | inactive | – | inactive | inactive | –
14 | Clc1cccc2c1CN1CN2Cc2c(Cl)cccc21 | 13 | 8 | Active | 13 | 8 | 8 | 8 | inactive | inactive | 8 | – | – | –
15 | Cc1ccc2c(c1I)CN1CN2Cc2c1ccc(C)c2I | 13 | 8 | Active | 8 | 13 | 13 | 8 | inactive | inactive | 13 | – | – | –
16 | Brc1ccc2c(c1)N1Cc3ccc(Br)cc3N(C2)C1 | – | 8 | Active | 13 | 8 | 8 | 8 | inactive | inactive | 8 | inactive | – | –
17 | Clc1ccc2c(c1)CN1CN2Cc2cc(Cl)ccc21 | – | 13 | Active | 13 | 13 | 13 | 13 | inactive | inactive | – | inactive | inactive | –
18 | Clc1cccc2c1N1Cc3cccc(Cl)c3N(C2)C1 | 13 | 8 | Active | 13 | 8 | 8 | 8 | inactive | inactive | 8 | – | – | –
19 | Brc1cccc2c1CN1CN2Cc2c(Br)cccc21 | 13 | 8 | Active | 8 | 13 | 13 | 8 | inactive | inactive | 8 | – | – | –
20 | Brc1ccc2c(c1)CN1CN2Cc2cc(Br)ccc21 | 20 | 20 | Active | 20 | 13 | 20 | 13 | Active | Active | 20 | – | – | –
21 | Cc1cc(F)c2c(c1)CN1CN2Cc2cc(C)cc(F)c21 | – | 13 | Active | 13 | 8 | 13 | 13 | inactive | inactive | 8 | inactive | – | –
22 | Fc1ccc2c(c1)N1Cc3ccc(F)cc3N(C2)C1 | – | 13 | Active | 13 | 8 | 13 | 13 | inactive | inactive | 8 | inactive | – | –
23 | Cc1cc(Cl)cc2c1N1Cc3cc(Cl)cc(C)c3N(C2)C1 | 13 | 8 | Active | 8 | 13 | 13 | 8 | Active | inactive | 8 | – | – | –
